Results as given in US11785950B2, “Use of dried chicory root to protect poultry and livestock against ectoparasites or as insect repellant” (Cosucra Groupe Warcoing S.A., priority 2017, dated 2023).

How the values were obtained:
[1] = tested on: scabies (dominantly caused by the mite Chorioptes bovis); assay: Comparative trial vs Amitraz: clinical index of scabies lesions; type: in vivo; design: key to clinical index, active lesions (4): % area with type 4 lesions = squares type 4/350*100; settings: for clinical index, active lesions (4): week not given
From the text: The whole trial lasted for 15 weeks and was subdivided in […]: a pre-treatment period of 9 weeks, a treatment period of 3 weeks, and a 3 week post-treatment period.
The trial started with pre-treatment period of 9 weeks during which the animals were housed in a straw-bedded free stall and received no preventive treatment against scabies and lice. At the end of the pre-treatment period, the degree of scabies lesions (clinical index) and counts of mites and lice in skin-scraping samples were evaluated.
(§1) Twenty Belgian Blue cattle (6 heifers and 14 cows) were used in this trial. Cattle with mild or severe visual signs of scabies infection were selected, tied, shaved, scored for scabies lesions (clinical index) and skin scraping samples were taken for counts of mites and lice. Next, the animals were divided into 2 groups, a control group and a treatment group, based on the results of the clinical index and mite—lice counts at the end of the pre-treatment phase. At the start of the treatment period, animals were housed in a tie-stable, shaved and tied to prevent physical contact with other animals.
(§2) Control group: The animals in the positive control group were treated according to the standard ILVO (Flecmish Institute for Agriculture and Fishery) scabies prevention protocol which consisted of treatment with Amitraz (Tactic) and removal of the crusts, followed by a second treatment with interval of 10 days between both treatments. After the second treatment crusts were not removed.
Treatment group: The animals in the treatment group were not treated with Amitraz (Tactic), but were fed the indicative daily dose of 200 g of dried chicory root composition per animal per day. Said amount corresponds to roughly 1 to 2% of dried chicory root on the total feed. Dried chicory root composition was provided mixed through the daily dose of soybean meal and concentrate. The nutritional treatment with dried chicory root composition lasted for 3 consecutive weeks during which the animals receive their daily dose of dried chicory root composition. […]
In the last week of the pre-treatment period (week 0) and every following week till the end of the post-treatment period, the clinical index was determined as a measure for scabies lesions. Per animal, the number, size and type of scabies lesions was determined using a scoring form.
A distinction was made between dried, healing lesions (type 3) and wet, active lesions (type 4). The clinical index was calculated based on the total number of lesions using the formula: Area with lesions=total squares/350*100.
In addition, an alternative clinical index was calculated based on the number of active lesions: Area with lesions type 4=squares type 4/350*100. […]

mites (Chorioptes bovis) = assay: Comparative trial vs Amitraz: mite count in skin scraping samples; type: in vivo; settings: week 4; 10 animals per group
From the text: as §1, §2
Treatment group: The animals in the treatment group were not treated with Amitraz (Tactic), but were fed the indicative daily dose of 200 g of dried chicory root composition per animal per day. […]
Using microscopy, the numbers of mites and lice in each sample were counted and the types of mites and lice were identified by an expert at the Laboratory of Parasitology, Ghent University, Belgium. […]

SMILES: Cc1ccc(/N=C/N(C)/C=N/c2ccc(C)cc2C)c(C)c1 [Tactic, Amitraz]
- clinical index, active lesions (4) ([1]; 3rd week pair of columns): 0.0
- clinical index, active lesions (4) ([1]; 4th week pair of columns): 0.0
- clinical index, active lesions (4) ([1]; 5th week pair of columns): 0.0
- clinical index of Tactic group higher than that of dried chicory root group, 95% confidence maximum ([1]; equivalence test): ≤ 15%
- WBT samples positive for Chorioptes bovis (mites (Chorioptes bovis)): 3 samples
- hock samples positive for Chorioptes bovis (mites (Chorioptes bovis)): one
